Common to all, as to format: cell membranes, Striatum, Membrane
Assay [1] deals with T1, D(2) dopamine receptor (Rattus norvegicus, UniProt P61169). Kind of assay: Compound was evaluated for its affinity to Dopamine receptor D2 labelled with [3H]spiroperidol in rat striatal membranes.
For assay [2], the target named is T1, D(2) dopamine receptor. Kind of assay: Compound was evaluated for its affinity to Dopamine receptor D2 labelled with [3H]pramipexole in rat striatal membranes.
A further assay addresses D(1A) dopamine receptor (Rattus norvegicus, UniProt P18901). Kind of assay: Compound was evaluated for its affinity to Dopamine receptor D1 labelled with [3H]-SCH- 23390 in rat striatal membranes.

In ChEMBL document CHEMBL1128010, “Novel HO-DPAT (hydroxy-2-dipropylaminotetralin) isomers: Stereoselective synthesis and receptor binding studies” (Bioorg Med Chem Lett, 1994) one finds Ki data, which are given here for two compounds.

Structures are written as SMILES.

T1 sequence (P61169 whole entry): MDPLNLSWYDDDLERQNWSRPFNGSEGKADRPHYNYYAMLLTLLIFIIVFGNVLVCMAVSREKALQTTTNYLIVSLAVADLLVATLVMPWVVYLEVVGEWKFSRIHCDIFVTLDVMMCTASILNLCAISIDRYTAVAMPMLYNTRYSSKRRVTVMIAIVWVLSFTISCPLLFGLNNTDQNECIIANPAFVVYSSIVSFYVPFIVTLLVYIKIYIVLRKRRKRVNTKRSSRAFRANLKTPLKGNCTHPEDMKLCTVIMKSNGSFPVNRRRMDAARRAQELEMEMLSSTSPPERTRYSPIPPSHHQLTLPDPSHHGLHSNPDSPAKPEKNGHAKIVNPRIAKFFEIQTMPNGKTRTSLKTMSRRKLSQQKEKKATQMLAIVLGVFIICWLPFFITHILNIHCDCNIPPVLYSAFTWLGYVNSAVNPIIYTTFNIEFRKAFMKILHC
D(1A) dopamine receptor, sequence (P18901 whole entry): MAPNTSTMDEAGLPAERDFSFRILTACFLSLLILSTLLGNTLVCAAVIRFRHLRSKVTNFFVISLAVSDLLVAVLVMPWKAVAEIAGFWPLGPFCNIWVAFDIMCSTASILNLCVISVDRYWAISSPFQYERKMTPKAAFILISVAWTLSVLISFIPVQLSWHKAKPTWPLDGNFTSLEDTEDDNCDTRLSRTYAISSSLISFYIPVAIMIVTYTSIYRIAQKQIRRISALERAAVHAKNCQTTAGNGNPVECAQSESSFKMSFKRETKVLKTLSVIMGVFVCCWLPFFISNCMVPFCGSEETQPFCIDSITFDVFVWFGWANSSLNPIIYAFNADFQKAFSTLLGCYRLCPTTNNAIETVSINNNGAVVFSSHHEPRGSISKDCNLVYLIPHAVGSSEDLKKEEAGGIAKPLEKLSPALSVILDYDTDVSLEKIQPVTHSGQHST

By Ki is commonly meant the equilibrium dissociation constant of an inhibitor or competing ligand from its target. The low end stands for higher affinity, the high end for lower affinity. Turning to `CCCN(CCC)C1Cc2ccccc2[C@H](O)C1` (stereo partly specified), the Ki on D(2) dopamine receptor [1] is 13.9 µM; at D(2) dopamine receptor [2], 0.0357 µM; at D(1A) dopamine receptor, over 50 µM.
On the same counts, the results for `CCCN(CCC)C1Cc2ccccc2[C@@H](O)C1` (stereo partly specified) are 13 µM, 0.262 µM and over 50 µM.
